Measured values as given in ChEMBL document CHEMBL5230112, “Covalent inhibitors of GAPDH: From unspecific warheads to selective compounds” (Eur J Med Chem, 2020).
Each block holds one compound with its values, some of them ahead of it.

What was measured:
[1] = molecular target: T1, Glyceraldehyde-3-phosphate dehydrogenase (Homo sapiens, UniProt P04406); assay: Inhibition of GAPDH (unknown origin) measured after 1 hr
Target sequence in this assay (P04406 whole entry): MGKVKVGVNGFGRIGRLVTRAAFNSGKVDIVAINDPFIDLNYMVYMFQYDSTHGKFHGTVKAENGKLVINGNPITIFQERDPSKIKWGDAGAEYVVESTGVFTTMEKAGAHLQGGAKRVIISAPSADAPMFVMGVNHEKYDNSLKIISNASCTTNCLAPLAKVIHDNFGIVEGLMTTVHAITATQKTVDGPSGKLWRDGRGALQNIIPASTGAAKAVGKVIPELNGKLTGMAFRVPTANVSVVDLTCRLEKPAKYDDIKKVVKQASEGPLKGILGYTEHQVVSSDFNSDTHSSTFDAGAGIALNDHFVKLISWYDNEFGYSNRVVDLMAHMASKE

[2] = molecular target: T1, Glyceraldehyde-3-phosphate dehydrogenase; assay: Irreversible inhibition of GAPDH (unknown origin) assessed as ratio of Kinact/Ki
Target sequence in this assay (P04406 2-335 limits assumed): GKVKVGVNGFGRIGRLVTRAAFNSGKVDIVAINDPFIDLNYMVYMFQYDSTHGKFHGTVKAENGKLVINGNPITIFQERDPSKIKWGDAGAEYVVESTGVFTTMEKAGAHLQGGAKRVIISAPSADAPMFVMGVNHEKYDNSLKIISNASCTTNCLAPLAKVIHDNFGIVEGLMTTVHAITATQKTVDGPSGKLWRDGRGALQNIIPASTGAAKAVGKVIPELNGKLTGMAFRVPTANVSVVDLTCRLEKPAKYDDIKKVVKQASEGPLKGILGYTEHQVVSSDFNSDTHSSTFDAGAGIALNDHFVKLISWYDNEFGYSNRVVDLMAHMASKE

[3] = molecular target: Glyceraldehyde-3-phosphate dehydrogenase (Oryctolagus cuniculus) (UniProt P46406); assay: Inhibition of rabbit muscle GAPDH at 0.5 mM incubated for 24 hrs relative to control
Glyceraldehyde-3-phosphate dehydrogenase (Oryctolagus cuniculus), sequence (P46406 whole entry, looked up): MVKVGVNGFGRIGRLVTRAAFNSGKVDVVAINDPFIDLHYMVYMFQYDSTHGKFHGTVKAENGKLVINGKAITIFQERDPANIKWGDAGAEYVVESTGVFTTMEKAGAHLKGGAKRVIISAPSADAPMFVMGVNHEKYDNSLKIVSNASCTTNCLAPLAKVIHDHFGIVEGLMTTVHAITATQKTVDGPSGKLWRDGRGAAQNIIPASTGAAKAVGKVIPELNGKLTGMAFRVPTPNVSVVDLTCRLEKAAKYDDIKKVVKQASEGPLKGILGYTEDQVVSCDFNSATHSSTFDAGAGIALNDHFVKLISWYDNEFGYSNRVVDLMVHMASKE

[4] = molecular target: T1, Glyceraldehyde-3-phosphate dehydrogenase; assay: Irreversible inhibition of GAPDH (unknown origin) assessed as ratio of Kinact/Ki at fast phase
Target sequence in this assay (P04406 2-335 limits assumed): as the sequence (P04406 2-335 limits assumed) above

[5] = molecular target: T1, Glyceraldehyde-3-phosphate dehydrogenase; assay: Irreversible inhibition of GAPDH (unknown origin) assessed as ratio of Kinact/Ki at slow phase
Target sequence in this assay (P04406 2-335 limits assumed): as above

Saccharomyces cerevisiae = assay: Irreversible inhibition of yeast GAPDH holoenzyme
[6] = molecular target: T1, Glyceraldehyde-3-phosphate dehydrogenase; assay: Inhibition of human GAPDH
Target sequence in this assay (P04406 2-335 limits assumed): as above

- IC50 [1]: 50 µM
Compound: CCCCCC(O)/C=C/C=O (stereo not given) [4-HYDROXYNON-2-ENAL]

Compound: C=CC#N
- Ratio [2]: 9.2 M⁻¹ s⁻¹

- inhibition [3]: 20%
Compound: O=C(O)/C=C/C(=O)O

- Ratio [4]: 18.3 M⁻¹ s⁻¹
- Ratio [5]: 10.9 M⁻¹ s⁻¹
Compound: COC(=O)/C=C/C(=O)OC

Compound: O=C(CCl)P(=O)(O)O
- K (Saccharomyces cerevisiae): 2.8 10^4/M/s

Compound: C=CC(C)=O
- Ratio [2]: 128 M⁻¹ s⁻¹

Compound: O=C(CBr)P(=O)(O)O
- K (Saccharomyces cerevisiae): 5.4 10^4/M/s
- K [6]: 3.5 10^4/M/s

- IC50 [1]: 39.1 µM
Compound: CCC(O)/C=C/C=O (stereo not given)
